The values that follow are results of earlier work, collected in patent US20160286794A1, “PLANT DISEASE CONTROL AGENT AND PLANT DISEASE CONTROL METHOD” (UBE MATERIALS INDUSTRIES, LTD., priority 2013, published 2016).

For the series the following is noted: Hydrophile-Lipophile Balance of the nonionic surfactant.
Regarding “polyethylene glycol sorbitan monooleate [Tween 80]”, the HLB was 15.0.

Consider “octylphenol polyethylene glycol ether [Triton X-100]”, for which the HLB is 13.5. As to “polyoxyethylene branched nonyl cyclohexyl ether [Triton N-101]”, the HLB was 13.5. As for “polyethylene glycol sorbitan monolaurate [Tween 20]”, the HLB was 16.7. With “nonylphenyl polyethylene glycol [Nodinet P-40]”, the HLB is on record as 13.0.
